One series addresses PPARγ (Homo sapiens (Human), UniProt P37231). The series can be described thus: PPARγ agonist assay (HTRF, PPARγ-NCOR interaction). The series is classed as biochemical. To be noted: read-out: PPAR γ assay (HTRF) for agonists of this nuclear receptor - IC50. The text has this: Significant safety issues are associated with the clinical use of PPARγ agonists (increased risk of death, myocardial infarction, stroke, congestive heart failure, hepatotoxicity, peripheral edema, weight gain and carcinogenicity^1-4). We wanted to characterize the compounds we identified in a pilot screen as potential PPARγ agonists. The PPARγ assay is based on agonist-sensitive interaction of the GST-tagged ligand-binding domain (LRD) of the nuclear receptor PPARγ with the biotinylated corepressor NCOR peptide (FIG. 8).
Assay reactions are performed in a final volume of 16 ul.
In well of the 384-well assay plate, mix 6 ul of PPARγ solution, 4 ul of NCOR2 solution and 4 μl of Rosi solution. Test compounds diluted from DMSO stocks to 4× assay concentration in 1×HTRF, 100 mM KF buffer may be dispensed to well instead of Rosi. Negative control wells contained DMSO solvent alone; positive control well contained […]. […] Two μl of detection mix was added per well. […] The plate was incubated for 16 hrs at 4° C.
HTRF signal was measured in the SpectraMax M5e Multimode Plate Reader (Molecular Device). Fluorescence was excited at 337 nm. […] The signal was expressed as the ratio of fluorescence intensity: Flu668/Flu620×10,000. […]
On the technique in general: In TR-FRET formats the signal depends on donor and acceptor labels being close together.

In a further series the target is CYP3A4 (Homo sapiens (Human), UniProt P08684). Kind of series: CYP inhibition, fluorescent, CYP3A4. In kind it is in vitro ADME. Here is the method: (§1) The compounds listed below were tested in various metabolic stability and CYP inhibition assays.
The target of a further series is CYP2C9 (Homo sapiens (Human), UniProt P11712). The series can be described thus: CYP inhibition, fluorescent, CYP2C9. The series is classed as in vitro ADME. Here is the method: as §1
Another series addresses CYP2C19 (Homo sapiens (Human), UniProt P33261). Kind of series: CYP inhibition, fluorescent, CYP2C19. The series is classed as in vitro ADME. Here is the method:
as §1

The next series has as its target serum RBP4 (Mus musculus (Mouse), UniProt Q00724). The series can be described thus: Serum RBP4 reduction in Balb/c mice after a single oral administration. The settings on record: at 6 hr timepoint. In kind it is in vivo. Here is the method:
Pharmacodynamic Studies of 7a and 7p in Balb/c Mice Following a Single Oral Administration
Animal protocols were approved by the Institutional Animal Care and Use Committee of Columbia University and complied with guidelines set forth by The Association for Research in Vision and Ophthalmology. Compounds were prepared as a suspension in 0.9% NaCl, 2% Tween 80 for oral administration. Compounds were administered to Balb/c mice in a volume of 100 μL through oral gavage. The doses used were 15 mg/kg, 25 mg/kg and 35 mg/kg for 7a while two doses, 25 mg/kg and 35 mg/kg, were tested for DENG-31(FFB-0000082). Blood samples were collected at pre-dose and 1 hr, 2 hr, 4 hr, 6 hr, 8 hr, and 24 hr timepoints. Whole blood was drawn into a centrifuge tube and was let clot at room temperature for 30 min followed by centrifugation at 2,000×g for 15 minutes at +4° C. to collect serum. Serum RBP4 was measured using the RBP4 (mouse/rat) dual ELISA kit (AdipoGen) following the manufacturer's instructions.
In order to attain this objective, the effect of oral compound administration was studied in mice. Three doses of compound 7a and two doses of 7p were tested in Balb/c mice assay for reduction of serum RBP4.

The target of the next series is CYP2D6 (Homo sapiens (Human), UniProt P10635). Kind of series: CYP inhibition, fluorescent, CYP2D6. In kind it is in vitro ADME. Here is the method:
as §1

The nature of series [1]: Metabolic stability in liver microsomes (HLM). The series is classed as in vitro ADME, human. Here is the method:
as §1
For orientation: Liver microsomes are vesicles of endoplasmic reticulum, rich in cytochrome P450 enzymes.

Another series addresses RBP4-TTR interaction (Homo sapiens (Human), UniProt P02753). Kind of series: HTRF (TR-FRET) assay for antagonists of retinol-induced RBP4-TTR interaction. The settings on record: in the presence of 1 μM retinol. In kind it is biochemical. The text has this: TR-FRET Assay for Retinol-Induced RBP4-TTR Interaction
Binding of a desired RBP4 antagonist displaces retinol and induces hindrance for RBP4-TTR interaction resulting in the decreased FRET signal (FIG. 7). Bacterially expressed MBP-RBP4 and untagged TTR were used in this assay. For the use in the TR-FRET assay, the maltose binding protein (MBP)-tagged human RBP4 fragment (amino acids 19-201) was expressed in the Gold(DE3)pLysS E. coli strain (Stratagene) using the pMAL-c4x vector. Following cell lysis, recombinant RBP4 was purified from the soluble fraction using the ACTA FPLC system (GE Healthcare) equipped with the 5-ml the MBP Trap HP column. Human untagged TTR was purchased from Calbiochem. Untagged TTR was labeled directly with Eu^3+ Cryptate-NHS using the HTRF Cryptate Labeling kit from CisBio following the manufacturer's recommendations. HTRF assay was performed in white low volume 384 well plates (Greiner-Bio) in a final assay volume of 16 μl per well. […] Titration of test compounds in this assay was conducted in the presence of 1 μM retinol. […] TR-FRET signal was measured in the SpectraMax M5e Multimode Plate Reader (Molecular Device). […] The TR-FRET signal was expressed as the ratio of fluorescence intensity: Flu665/Flu620×10,000.
(§2) The compounds listed below were tested in two in vitro assays, RBP4 binding (SPA) and retinol-dependent RBP4-TTR interaction (HTRF) (Table 1).

Another series addresses human RBP4 (Homo sapiens (Human), UniProt P02753). Kind of series: SPA binding assay for RBP4 (scintillation proximity, 3H-retinol displacement). To be noted: 10 nM 3H-retinol, 50 nM biotinylated RBP4. Here is the method: Scintillation Proximity RBP4 Binding Assay
Untagged human RBP4 purified from the urine of tubular proteinuria patients was purchased from Fitzgerald Industries International. It was biotinylated using the EZ-Link Sulfo-NHS-LC-Biotinylation kit from Pierce following the manufacturer's recommendations. […] Nonspecific binding was determined in the presence of 20 μM of unlabeled retinol. The reaction mix was assembled in the dark under dim red light. The plates were sealed with clear tape (TopSeal-A: 96-well microplate, PerkinElmer), wrapped in the aluminum foil, and allowed to equilibrate 6 hours at room temperature followed by overnight incubation at +4° C. Radiocounts were measured using a TopCount NXT counter (Packard Instrument Company).
as §2

Molecules are shown by their SMILES.

Sequence of CYP2C19 (P33261 whole entry, species assumed): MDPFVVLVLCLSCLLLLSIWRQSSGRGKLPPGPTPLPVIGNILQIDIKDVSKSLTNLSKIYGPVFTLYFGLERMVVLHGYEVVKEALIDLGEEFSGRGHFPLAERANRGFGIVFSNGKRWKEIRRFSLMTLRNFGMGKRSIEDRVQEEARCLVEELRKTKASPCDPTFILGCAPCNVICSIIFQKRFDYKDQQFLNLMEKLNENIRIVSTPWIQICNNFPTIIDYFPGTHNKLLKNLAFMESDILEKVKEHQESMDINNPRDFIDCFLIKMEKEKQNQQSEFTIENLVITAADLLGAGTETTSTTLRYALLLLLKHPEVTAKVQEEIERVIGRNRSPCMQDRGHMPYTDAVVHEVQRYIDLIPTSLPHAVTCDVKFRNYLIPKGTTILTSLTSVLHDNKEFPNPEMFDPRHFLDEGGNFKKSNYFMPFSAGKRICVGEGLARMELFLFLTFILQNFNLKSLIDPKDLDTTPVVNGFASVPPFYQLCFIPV
Sequence of PPARγ (P37231 204-505): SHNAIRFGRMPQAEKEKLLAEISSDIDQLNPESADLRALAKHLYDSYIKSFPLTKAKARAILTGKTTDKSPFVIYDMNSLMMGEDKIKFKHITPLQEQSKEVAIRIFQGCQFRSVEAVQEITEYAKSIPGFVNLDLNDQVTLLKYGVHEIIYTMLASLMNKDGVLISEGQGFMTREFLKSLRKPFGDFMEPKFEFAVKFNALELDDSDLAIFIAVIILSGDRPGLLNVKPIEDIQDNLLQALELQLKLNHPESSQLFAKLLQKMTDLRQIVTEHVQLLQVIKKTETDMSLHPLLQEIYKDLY
Sequence of CYP3A4 (P08684 whole entry, species assumed): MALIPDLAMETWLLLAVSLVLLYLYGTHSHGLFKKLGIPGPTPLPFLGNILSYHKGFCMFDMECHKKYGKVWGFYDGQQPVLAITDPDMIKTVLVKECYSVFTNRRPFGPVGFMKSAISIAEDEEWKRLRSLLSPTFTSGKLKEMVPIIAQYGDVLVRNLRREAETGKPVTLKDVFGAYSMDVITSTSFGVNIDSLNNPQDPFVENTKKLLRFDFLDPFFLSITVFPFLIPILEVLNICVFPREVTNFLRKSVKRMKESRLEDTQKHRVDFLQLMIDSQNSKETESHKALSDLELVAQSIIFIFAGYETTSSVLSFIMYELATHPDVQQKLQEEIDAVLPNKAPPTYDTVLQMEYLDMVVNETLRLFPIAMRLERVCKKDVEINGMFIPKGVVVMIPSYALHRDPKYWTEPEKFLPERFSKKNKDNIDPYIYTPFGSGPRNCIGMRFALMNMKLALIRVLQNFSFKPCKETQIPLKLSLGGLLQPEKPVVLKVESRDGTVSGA
Sequence of CYP2D6 (P10635 whole entry, species assumed): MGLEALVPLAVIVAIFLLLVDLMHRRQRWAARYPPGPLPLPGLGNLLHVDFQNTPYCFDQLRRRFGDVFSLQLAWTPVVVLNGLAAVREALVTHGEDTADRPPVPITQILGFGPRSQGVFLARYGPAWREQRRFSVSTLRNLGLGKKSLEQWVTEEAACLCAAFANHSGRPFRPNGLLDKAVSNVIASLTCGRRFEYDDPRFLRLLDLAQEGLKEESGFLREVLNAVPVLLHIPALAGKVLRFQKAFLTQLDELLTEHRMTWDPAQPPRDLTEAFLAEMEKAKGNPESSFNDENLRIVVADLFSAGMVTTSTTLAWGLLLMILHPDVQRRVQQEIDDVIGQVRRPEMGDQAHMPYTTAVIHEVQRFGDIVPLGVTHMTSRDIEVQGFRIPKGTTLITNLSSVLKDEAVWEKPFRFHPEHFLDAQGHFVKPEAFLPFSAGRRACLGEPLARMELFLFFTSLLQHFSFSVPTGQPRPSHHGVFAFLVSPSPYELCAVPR
Sequence of CYP2C9 (P11712 whole entry, species assumed): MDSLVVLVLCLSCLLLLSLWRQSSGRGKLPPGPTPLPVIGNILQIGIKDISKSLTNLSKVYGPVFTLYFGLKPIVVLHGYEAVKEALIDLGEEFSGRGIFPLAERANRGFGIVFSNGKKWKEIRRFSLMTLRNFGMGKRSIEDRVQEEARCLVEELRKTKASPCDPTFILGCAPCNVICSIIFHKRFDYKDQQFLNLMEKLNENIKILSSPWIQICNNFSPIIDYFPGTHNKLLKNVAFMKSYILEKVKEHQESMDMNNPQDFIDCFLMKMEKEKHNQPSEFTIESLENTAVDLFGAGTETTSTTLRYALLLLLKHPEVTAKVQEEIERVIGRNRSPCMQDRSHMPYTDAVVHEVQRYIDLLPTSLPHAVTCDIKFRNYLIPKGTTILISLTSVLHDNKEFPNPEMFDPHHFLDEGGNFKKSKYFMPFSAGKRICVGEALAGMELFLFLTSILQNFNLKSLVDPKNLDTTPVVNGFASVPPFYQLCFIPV

As to `O=C(c1nc2ncc(CCO)cn2n1)N1C[C@@H]2CN(c3cc(F)ccc3C(F)(F)F)C[C@@H]2C1` [Compound 7p], the IC50 (in general, the concentration needed to halve the response being measured) is > 100 µM on PPARγ; > 20 µM on CYP3A4; > 20 µM against CYP2C9; > 20 µM against CYP2C19; > 20 µM against CYP2D6; 0.15 µM at RBP4-TTR interaction. For the same molecule, the IC50 at human RBP4 is 0.037 µM. Besides, the “maximum serum RBP4 reduction” value at serum RBP4 (single 25 mg/kg PO) stood at 89%; on serum RBP4 (single 35 mg/kg PO) it was 87%. Moreover, the “Metabolic stability in liver microsomes: % Remaining at 30 min, HLM” value in series [1] stood at 73%.

Source of the values: patent US12168664B2, “Triazolopyrimidines, their preparation and use” (THE TRUSTEES OF COLUMBIA UNIVERSITY IN THE CITY OF NEW YORK, priority 2018, dated 2024).
